Data taken from PMC10988762, “Inhibition of malaria and babesiosis parasites by putative red blood cell targeting small molecules” (Frontiers in Cellular and Infection Microbiology, 2024).
Read-outs that look alike come from different tables or passages of the source. Marks after values point to notes of the source that are not given here.

Assays:
[1] = test system: P. falciparum strain 3D7; assay: Inhibitor susceptibility dose-response assay (SYBR-Green I), P. falciparum 3D7; type: cell-based, Plasmodium falciparum; settings: Plasmodium falciparum, read-out: IC50 (S.D.), P. falciparum-3D7
Method: (§1) The P. falciparum strains 3D7 and Dd2 were obtained from the Walter and Eliza Hall Institute (Melbourne, Australia) and the Malaria Research and Reference Reagent Resource, respectively. […] B. divergens parasites were maintained and assayed in mixed stages without synchronization.
(§2) Ring-stage P. falciparum (1%-parasitemia starting, 1%-hematocrit) and asynchronous B.divergens (0.5%-parasitemia starting, 3%-hematocrit) were incubated with plated compounds for 72h, and ring-stage P. knowlesi (1%-parasitemia starting, 1%-hematocrit) for 48h, before lysis and staining with dye. To quantify the species-specificity of the inhibitors, we divided the range of IC50s across the 4 test lines by the average IC50 across the same lines: inhibitors with increased scores show species-specific activity and reduced scores indicate broad-spectrum, pan-species activity.

[2] = test system: P. falciparum strain Dd2; assay: Inhibitor susceptibility dose-response assay (SYBR-Green I), P. falciparum Dd2; type: cell-based, Plasmodium falciparum; settings: Plasmodium falciparum, read-out: IC50 (S.D.), P. falciparum-Dd2
Method: as §1, §2

[3] = test system: P. knowlesi YH1 strain; assay: microbe, parasite or virus in culture; type: cell-based, Plasmodium knowlesi; settings: Plasmodium knowlesi, 48 h, read-out: IC50 (S.D.), P. knowlesi
Method: as §1, §2

[4] = test system: BdC9 line of B. divergens; assay: Inhibitor susceptibility dose-response assay (SYBR-Green I), B. divergens; type: cell-based, Babesia divergens; settings: for IC50: Babesia divergens, read-out: IC50 (S.D.), B. divergens; for fold higher doses required for 50% inhibition of B. divergens than of the Plasmodium spp. lines: B. divergens vs Plasmodium spp. lines
Method: as §1, §2

[5] = test system: K562; parameters: method as in PMID 19662183; settings: cellular proliferation ref PMID 19662183; read-out: Micromolar IC50 (K562); cited from earlier work
[6] = test system: 293T; parameters: method as in PMID 19662183; settings: cellular proliferation ref PMID 19662183; read-out: Micromolar IC50 (293T); cited from earlier work
[7] = in vitro; settings: human
Excerpt: (§3) We analyzed samples using a volumetric MACSQuant Analyzer Flow Cytometer (Miltenyi Biotec), manually resuspending each row immediately prior to sample uptake. We recorded 10,000 total events for each condition at the instrument-defined low flow rate. We assessed all compounds in 2 separate experiments with blood from different donors. […] All samples were gated for single cell events.

[8] = test system: uninfected RBCs; assay: Cellular phosphatidylserine exposure assay (annexin V flow cytometry);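 also: flow cytometry recording 10,000 events per condition, gated on single cells, with the two experiments using blood from separate donors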
Excerpt: as §3

[9] = test system: Plasmodium spp. lines; assay: Inhibitor susceptibility assays, summary over the Plasmodium spp. lines; type: cell-based; settings: for IC50: approximate value given in text for the Plasmodium spp. lines, read-out: IC50 against the Plasmodium spp. lines; for antiparasitic activity in vitro, in words, Plasmodium spp.: Plasmodium spp. parasites
Excerpt: The P. falciparum strains 3D7 and Dd2 were obtained from the Walter and Eliza Hall Institute (Melbourne, Australia) and the Malaria Research and Reference Reagent Resource, respectively. The P. knowlesi YH1 strain adapted for growth in human erythrocytes and the BdC9 line of B. divergens were previously reported ([Lim et al., 2013]; [Rezvani et al., 2022]). All parasite lines were maintained in continuous culture in human erythrocytes O+ purchased from a commercial source (Research Blood Components, Boston USA) in RPMI-1640 medium as described (eg [Rezvani et al., 2022]), typically at 2%-hematocrit. Plasmodium parasites were synchronized using sorbitol (5% [wt/vol] for both P. falciparum and P. knowlesi; for P. knowlesi, with addition of 20 mM Na-HEPES and 0.1 mg/ml BSA) ([Lambros and Vanderberg, 1979]) at least once in the week prior to assays. B. divergens parasites were maintained and assayed in mixed stages without synchronization.
as §2, with “We carried out dose-response assays in 384-well plates (40 µl assay volume) for measurement with SYBR-Green I dye ([Mandt et al., 2019]), with test compounds pre-printed into wells via use of a D300 Digital Dispenser (Hewlett-Packard). Ring-stage” for “Ring-stage”

[10] = test system: SW1990; parameters: method as in PMID 27487486; settings: cellular proliferation ref PMID 27487486; read-out: Micromolar IC50 (SW1990); cited from earlier work
[11] = experimental logP ref https://go.drugbank.com/drugs/DB08865; cited from earlier work
[12] = test system: H2228; parameters: method as in PMID 30333870; settings: cellular proliferation ref PMID 30333870; read-out: Micromolar IC50 (H2228); cited from earlier work
[13] = test system: P. falciparum (3D7); assay: Assay for inhibition of parasite proliferation via RBC-targeting (transient exposure of RBCs, wash, then infection); type: cell-based, Plasmodium falciparum; settings: transient vs continued exposure; dose-response format where stated, n=3
Method: All plates were frozen for storage before assay. For assay, duplicate plates were preincubated with donor O+ RBCs at 2% hematocrit at 37°C in 50µL for 4-5 hours. Following preincubation, one but not the other plate in each pair was washed 4X in complete RPMI to dilute inhibitor. We transferred RBCs from both washed and unwashed plates to black, clear bottom 96-well plates (Corning Cat. No. 3904) and supplemented these suspensions with MACS-purified P. falciparum (3D7) schizonts for a starting parasitemia of 0.1% - 0.25% at 1% hematocrit. Following 72h incubation in standard culture conditions, samples were processed for SYBR-Green I signal ([Mandt et al., 2019]). […] To identify host-targeting compounds, we compared DMSO-treated to inhibitor-treated samples (Students t-test, paired). We carried out the assay with 1 µM mefloquine (Sigma-Aldrich Cat. No. M2319) as a control for reversible inhibition. All assays were conducted in biological triplicate, with each experiment utilizing different donor RBCs. For select compounds, we carried out this same assay in a dose-response series (n=3 experiments). Following normalization to DMSO-controls, we assessed inhibitor activity following transient exposure of RBCs by Two-Way ANOVA tests for repeated measures (Graphpad Prism v9): high P values indicate support for the null hypothesis that dose-dependent inhibition is not modulated by dilution after exposure, consistent with a direct inhibitory effect of the compounds on RBCs persisting after transient exposure.

[14] = test system: P. falciparum 3D7; assay: Co-administration with established antimalarials, IC50 shift; type: cell-based, Plasmodium falciparum; settings: P<0.05
Excerpt: Our experimental compound set is weighted toward kinase inhibitors, reflecting the high degree of small molecule development in this target space.

[15] = test system: uninfected RBCs; settings: 5x P. falciparum 3D7-IC50; 24, 48, 72h
Excerpt: as §3

[16] = test system: Plasmodium berghei; parameters: method as in Wu et al., 2017; settings: mouse model of severe malaria with Plasmodium berghei ref Wu et al., 2017; cited from earlier work
[17] = test system: MEF; parameters: method as in PMID 29336889; settings: cellular proliferation ref PMID 29336889; read-out: Micromolar IC50 (MEF); cited from earlier work
[18] = 3D7, 72h, ring-stage, n=3 experiments (or 2 where indicated with *)
[19] = DD2, 72h, ring-stage, n=3 experiments (or 2 where indicated with *)
[20] = 72h, asynchronous, n=3 experiments (or 2 where indicated with *)
[21] = uninfected RBCs (red blood cells), 1% hematocrit
[22] = 24h, 5x P. falciparum 3D7-IC50, % of RBCs, mean of 2 experiments
[23] = 5x P. falciparum 3D7-IC50, % of RBCs, mean of 2 experiments
[24] = 72h, 5x P. falciparum 3D7-IC50, % of RBCs, mean of 2 experiments

SMILES	IC50 [1, 18] [nM]	IC50 [2, 19] [nM]	IC50 [3] [nM]	IC50 [4, 20] [nM]	hemolysis at 24 h, 5 x P. falciparum 3D7-IC50 [7, 21] [%]	hemolysis at 48 h, 5 x P. falciparum 3D7-IC50 [7, 21] [%]	hemolysis at 72 h, 5 x P. falciparum 3D7-IC50 [7, 21] [%]	Phosphatidylserine exposure (%) 24h [8, 22] [%]	Phosphatidylserine exposure (%) 48h [8, 23] [%]	Phosphatidylserine exposure (%) 72h [8, 24] [%]	IC50 ([1]; 3D7, 72 h) [nM]	IC50 ([2]; DD2, 72 h) [nM]	fold higher doses required for 50% inhibition of B. divergens than of the Plasmodium spp. lines [4] [fold]	IC50 ([4]; 72 h) [nM]	IC50 [9] [nM]	antiparasitic activity in vitro, in words, B. divergens [4]	antiparasitic activity in vitro, in words, Plasmodium spp. [9]	other results
Cc1ccc(NC(=O)c2ccc(CN3CC[C@H](N(C)C)C3)c(C(F)(F)F)c2)cc1Nc1nccc(-c2cncnc2)n1 [Bafetinib]	2000	3000	2000	12000	1	6	4	2	2	4	–	–	–	–	–	–	–	IC50 [5]: 1.1 nM; IC50 [6]: 2.2 nM
CCCC[C@@H](C=O)NC(=O)[C@H](CC(C)C)NC(=O)OCc1ccccc1 [Calpeptin]	–	–	900	–	0	8	17	2	2	5	1000	1300	> 30	40000	~1000	–	–	IC50 [10]: 74200 nM
C[C@@H](Oc1cc(-c2cnn(C3CCNCC3)c2)cnc1N)c1c(Cl)ccc(F)c1Cl [Crizotinib]	–	–	800	–	–	–	–	–	2	–	700	140	–	3000	–	single-digit micromolar activity	potent submicromolar activity	logP (octanol-water partition coefficient), experimental [11]: Crizotinib [drawing 15] (450.3; 1.83^2); IC50 [12]: 311 nM; hemolysis at 24 h, 5 x P. falciparum 3D7-IC50 [7]: 1%; hemolysis at 48 h, 5 x P. falciparum 3D7-IC50 [7]: 9%; hemolysis at 72 h, 5 x P. falciparum 3D7-IC50 [7]: 14%; Phosphatidylserine exposure (%) 24h [8]: 1%; Phosphatidylserine exposure (%) 72h [8]: 5%
CC(=O)Nc1cccc(-n2c(=O)n(C3CC3)c(=O)c3c(Nc4ccc(I)cc4F)n(C)c(=O)c(C)c32)c1 [Trametinib]	90	110	100	6000	-1	7	15	2	2	5	–	–	> 30	–	~100	single-digit micromolar activity	potent submicromolar activity	inhibitory activity following transient exposure of RBCs, in words [13]: does not persist beyond transient exposure; reduction in the IC50 of chloroquine in combination with fixed, sublethal dose of test compound [14]: ≤ 2 fold; reduction in the IC50 of mefloquine in combination with fixed, sublethal dose of test compound [14]: ≤ 2 fold; hemolysis of RBCs, in words [15]: similarly low levels; survival of infected mice [16]: improve survival of infected mice; IC50 [17]: 1.6 to 4.8 nM; PS exposure on RBCs, in words ([8]; 5x P. falciparum 3D7-IC50, 24, 48, 72h): similarly low levels
